T/C data for 20 compounds are collected here from PubChem BioAssay AID328 (DTP/NCI, 2004).

In the test the test system is BDF1 mice, P388 leukemia ip, median survival T/C. Kind of test: NCI In Vivo Anticancer Drug Screen. Data for tumor model P388 Leukemia (intraperitoneal) in B6D2F1 (BDF1) mice. The settings on record: endpoint: median survival time, higher = longer survival. In a few lines: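 Compound-treated tumour-bearing mice were compared with vehicle-treated controls. Survival was recorded, and the value is the treated-group measurement divided by the control-group measurement (T/C).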

Where [1] appears, read: dose: 100.0 mg/kg/injection, schedule: Q04DX003 (ip), vehicle: saline with Tween-80.
Setting [2] is: dose: 200.0 mg/kg/injection, schedule: Q04DX003 (ip), vehicle: saline with Tween-80.
The mark [3] stands for this setting: dose: 400.0 mg/kg/injection, schedule: Q04DX003 (ip), vehicle: saline with Tween-80.
Setting [4] is: dose: 50.0 mg/kg/injection, schedule: Q01DX009 (ip), vehicle: saline with Tween-80.
Where [5] appears, read: dose: 100.0 mg/kg/injection, schedule: Q01DX009 (ip), vehicle: saline with Tween-80.
Setting [6] is: dose: 200.0 mg/kg/injection, schedule: Q01DX009 (ip), vehicle: saline with Tween-80.
Where [7] appears, read: dose: 50.0 mg/kg/injection, schedule: Q04DX003 (ip), vehicle: saline with Tween-80.
[8] abbreviates: dose: 25.0 mg/kg/injection, schedule: Q04DX003 (ip), vehicle: saline with Tween-80.
Where [9] appears, read: dose: 25.0 mg/kg/injection, schedule: Q01DX009 (ip), vehicle: Klucel (hydroxypropylcellulose) (HPC).
The mark [10] stands for this setting: dose: 50.0 mg/kg/injection, schedule: Q01DX009 (ip), vehicle: Klucel (hydroxypropylcellulose) (HPC).
Setting [11] is: dose: 100.0 mg/kg/injection, schedule: Q01DX009 (ip), vehicle: Klucel (hydroxypropylcellulose) (HPC).
[12] abbreviates: dose: 200.0 mg/kg/injection, schedule: Q01DX009 (ip), vehicle: Klucel (hydroxypropylcellulose) (HPC).

SMILES strings stand for the structures. “And” between values parts separate entries of the source, which are not always exact repeats. Identical values can stand only once. Inconclusive results and toxic doses are left out.

Turning to `CC1OC(OC2C(CO)OC(O[C@H]3CC[C@@]4(C)C(=CC[C@H]5[C@@H]6C[C@@H]7O[C@@]8(CC[C@H](C)CN8)[C@@H](C)[C@@H]7[C@@]6(C)CC[C@@H]54)C3)C(OC3OC(C)C(O)C(O)C3O)C2O)C(O)C(O)C1O` (stereo partly drawn), the T/C runs as follows: (dose: 2.5 mg/kg/injection, schedule: Q01DX009 (ip), vehicle: water) 95 % of control and 100 % of control; (dose: 5.0 mg/kg/injection, schedule: Q01DX009 (ip), vehicle: water) 109 % of control; (dose: 10.0 mg/kg/injection, schedule: Q01DX009 (ip), vehicle: water) 100 % of control and 104 % of control; (dose: 20.0 mg/kg/injection, schedule: Q01DX009 (ip), vehicle: water) 95 % of control and 100 % of control.
In the case of `CC1CC(C)(C)N=C(C(Cc2ccc(Br)cc2)c2ccccc2)O1` (stereo not drawn), the T/C by setting is: (dose: 100.0 mg/kg/injection, schedule: Q01DX001 (ip), vehicle: saline sonified) 95 % of control; (dose: 200.0 mg/kg/injection, schedule: Q01DX001 (ip), vehicle: saline sonified) 110 % of control; (dose: 400.0 mg/kg/injection, schedule: Q01DX001 (ip), vehicle: saline sonified) 110 % of control.
Consider `COC(OC)c1nc(SC)[nH]c(=O)c1C[N+](C)(C)C`, for which the T/C is 100 % of control under setting [1], 100 % of control under setting [2] and 113 % of control under setting [3].
On to `CC(CCCc1ccccc1)(C(=O)O)C(=O)O`, for which the T/C is, setting by setting: (dose: 100.0 mg/kg/injection, schedule: Q04DX002 (ip), vehicle: saline with Tween-80) 96 % of control; (dose: 200.0 mg/kg/injection, schedule: Q04DX002 (ip), vehicle: saline with Tween-80) 98 % of control; (dose: 400.0 mg/kg/injection, schedule: Q04DX002 (ip), vehicle: saline with Tween-80) 102 % of control.
For `c1ccc2c(c1)nnn2OC1CCCC1`, the T/C by setting is: under setting [4], 106 % of control; under setting [5], 116 % of control; under setting [6], 119 % of control.
Turning to `O=S(=O)(O)O.[Ga]`, the T/C is 100 % of control (dose: 8.25 mg/kg/injection, schedule: Q01DX009 (ip), vehicle: saline sonified); 90 % of control under setting [7]; 95 % of control under setting [1]; 92 % of control (dose: 134.0 mg/kg/injection, schedule: Q04DX003 (ip), vehicle: saline with Tween-80); 123 % of control under setting [2]; 96 % of control (dose: 300.0 mg/kg/injection, schedule: Q04DX003 (ip), vehicle: saline with Tween-80).
For the compound `c1ccc2c(SSc3cccc4ccccc34)cccc2c1`, the T/C by setting is: under setting [8], 108 % of control; under setting [7], 108 % of control; under setting [1], 112 % of control; under setting [2], 103 % of control.
As for `O=C(O)c1[nH]c(=O)[nH]c(=O)c1F`, the T/C is 152 % of control (dose: 2.5 mg/kg/injection, schedule: Q01DX010 (ip), vehicle: saline) and 166 % of control (dose: 10.0 mg/kg/injection, schedule: Q01DX010 (ip), vehicle: saline).
For `CS(=O)(=O)OCCN(CCOS(C)(=O)=O)c1cccc(C(F)(F)F)c1`, the T/C is, setting by setting: (dose: 33.0 mg/kg/injection, schedule: Q04DX003 (ip), vehicle: saline with Tween-80) 155 % of control and 168 % of control; under setting [7], 170 % of control and 190 % of control; (dose: 75.0 mg/kg/injection, schedule: Q04DX003 (ip), vehicle: saline with Tween-80) 236 % of control and 190 % of control.
For `Cc1ccc(N2C=Nc3ccc(C)cc3C2)cc1`, the T/C is 100 % of control (dose: 10.0 mg/kg/injection, schedule: Q01DX009 (ip), vehicle: Klucel (hydroxypropylcellulose) (HPC)); 100 % of control (dose: 15.0 mg/kg/injection, schedule: Q01DX009 (ip), vehicle: Klucel (hydroxypropylcellulose) (HPC)); 90 % of control under setting [9]; 100 % of control (dose: 40.0 mg/kg/injection, schedule: Q01DX009 (ip), vehicle: Klucel (hydroxypropylcellulose) (HPC)); 118 % of control under setting [10]; 109 % of control under setting [11]. Further, the T/C (dose: 100.0 mg/kg/injection, schedule: Q04DX003 (ip), vehicle: other) was 109 % of control; the T/C under setting [12] was 90 % of control; the T/C (dose: 200.0 mg/kg/injection, schedule: Q04DX003 (ip), vehicle: other) was 104 % of control.
For the compound `COc1cccc2c1C(=N)c1c(O)c3c(c(O)c1C2=O)C[C@@](O)(C(C)=O)C[C@@H]3OC1CC(N)C(O)C(C)O1` (stereo partly drawn), the T/C (dose: 3.46 mg/kg/injection, schedule: Q04DX003 (ip), vehicle: saline) was 177 % of control; the T/C (dose: 5.76 mg/kg/injection, schedule: Q04DX003 (ip), vehicle: saline) was 186 % of control; the T/C (dose: 9.6 mg/kg/injection, schedule: Q04DX003 (ip), vehicle: saline) is 180 % of control.
With `C(=N\C(/N=C/c1ccccc1)c1ccccc1)/c1ccccc1`, the T/C reads like this: under setting [11], 91 % of control; (dose: 100.0 mg/kg/injection, schedule: Q04DX003 (ip), vehicle: Klucel (hydroxypropylcellulose) (HPC)) 100 % of control; (dose: 200.0 mg/kg/injection, schedule: Q04DX003 (ip), vehicle: Klucel (hydroxypropylcellulose) (HPC)) 95 % of control; (dose: 400.0 mg/kg/injection, schedule: Q01DX009 (ip), vehicle: Klucel (hydroxypropylcellulose) (HPC)) 87 % of control; (dose: 400.0 mg/kg/injection, schedule: Q04DX003 (ip), vehicle: Klucel (hydroxypropylcellulose) (HPC)) 100 % of control.
As to `CNC(=O)c1nc(C)c(C)[nH]c1=O`, the T/C is 97 % of control (dose: 25.0 mg/kg/injection, schedule: Q01DX009 (ip), vehicle: water); 90 % of control (dose: 50.0 mg/kg/injection, schedule: Q01DX009 (ip), vehicle: water); 103 % of control (dose: 50.0 mg/kg/injection, schedule: Q04DX003 (ip), vehicle: water); 99 % of control (dose: 100.0 mg/kg/injection, schedule: Q01DX009 (ip), vehicle: water); 90 % of control (dose: 200.0 mg/kg/injection, schedule: Q01DX009 (ip), vehicle: water); 100 % of control (dose: 400.0 mg/kg/injection, schedule: Q04DX003 (ip), vehicle: water).
As for `O=S(c1ccccc1)c1c(Cl)c(Cl)nc(Cl)c1Cl` (stereo not drawn), the T/C runs as follows: (dose: 2.75 mg/kg/injection, schedule: Q01DX009 (ip), vehicle: saline with Tween-80) 109 % of control; (dose: 5.5 mg/kg/injection, schedule: Q01DX009 (ip), vehicle: saline with Tween-80) 118 % of control; (dose: 11.0 mg/kg/injection, schedule: Q01DX009 (ip), vehicle: saline with Tween-80) 113 % of control; under setting [8], 113 % of control; under setting [7], 121 % of control.
For `CCC(CC)C(O)C(C)C(C)O` (stereo not drawn), the T/C under setting [1] was 100 % of control, the T/C under setting [2] is 100 % of control and the T/C under setting [3] was 100 % of control.
`O=C(NC1=NN(c2ccccc2)C(=O)C1)C(Cl)c1ccccc1` (stereo not drawn): the T/C is, setting by setting: under setting [4], 104 % of control; under setting [5], 95 % of control; under setting [6], 95 % of control.
For `CCOC(=O)c1cc(C(=O)OCC)c(=O)oc1OCC`, the T/C runs as follows: (dose: 25.0 mg/kg/injection, schedule: Q01DX009 (ip), vehicle: saline) 118 % of control; (dose: 50.0 mg/kg/injection, schedule: Q01DX009 (ip), vehicle: saline) 104 % of control; (dose: 100.0 mg/kg/injection, schedule: Q01DX009 (ip), vehicle: saline) 118 % of control.
Take `CN(C)c1ccc(C(=O)c2ccccc2)cc1`: the T/C is 104 % of control under setting [9], 90 % of control under setting [10] and 95 % of control under setting [11].
Regarding `COc1cc(N)c2ncsc2c1[N+](=O)[O-]`, the T/C reads like this: under setting [10], 89 % of control; under setting [11], 105 % of control; under setting [12], 106 % of control.
As for `CC(CCC(C)OS(C)(=O)=O)OS(C)(=O)=O` (stereo not drawn), the T/C by setting is: (dose: 2.0 mg/kg/injection, schedule: Q01DX010 (ip), vehicle: saline) 100 % of control; (dose: 4.0 mg/kg/injection, schedule: Q01DX010 (ip), vehicle: saline) 95 % of control; (dose: 8.0 mg/kg/injection, schedule: Q01DX010 (ip), vehicle: saline) 118 % of control; (dose: 16.0 mg/kg/injection, schedule: Q01DX010 (ip), vehicle: saline) 122 % of control.
